Measured values from ChEMBL document CHEMBL4627385, “Cytotoxic Monoterpenoid Indole Alkaloids from Tabernaemontana corymbosa as Potent Autophagy Inhibitors by the Attenuation of Lysosomal Acidification” (J Nat Prod, 2020).
Calls of active or inactive are those of the source. The rule behind the calls is not given here.

Experiments:
Assay type in all cases: functional, cell-based
SMMC-7721 = assay: Cytotoxicity against human SMMC7721 cells assessed as reduction in cell viability incubated for 48hrs by MTT assay; details: SMMC-7721, 48 h
SW480 = assay: Cytotoxicity against human SW480 cells assessed as reduction in cell viability incubated for 48hrs by MTT assay; details: SW480, 48 h
A549 = assay: Cytotoxicity against human A549 cells assessed as reduction in cell viability incubated for 48hrs by MTT assay; details: A549, 48 h
MCF7 = assay: Cytotoxicity against human MCF7 cells assessed as reduction in cell viability incubated for 48hrs by MTT assay; details: MCF7, 48 h
HeLa [1] = assay: Inhibition of lysosomal acidification in human HeLa cells incubated for 3 hrs by LysoTracker Red DND-99 staining based array scan method
HL-60 = assay: Cytotoxicity against human HL60 cells assessed as reduction in cell viability incubated for 48hrs by MTT assay; details: HL-60, 48 h
HeLa [2] = assay: Inhibition of autophagic flux in human HeLa cells assessed as p62 protein expression at 20 uM by Western blot analysis
HeLa [3] = assay: Inhibition of autophagic flux in human HeLa cells assessed as increase in LC3-2 to LC3-1 ratio at 20 uM by Western blot analysis
HeLa [4] = assay: Inhibition of autophagic flux in human HeLa cells harboring GFP-LC3 assessed as increase in LC3 dot accumulation incubated for 12 hrs by confocal microscopic method
HeLa [5] = assay: Inhibition of autophagic flux in human HeLa cells assessed as increase in LC3-2 to LC3-1 ratio at 20 uM in presence of Bafilomycin A1 by Western blot analysis
HeLa [6] = assay: Inhibition of autophagic flux in human HeLa cells assessed as inhibition of lysosomal acidification at 50 nM by Western blot analysis
HeLa [7] = assay: Inhibition of autophagic flux in human HeLa cells assessed as increase in LC3-2 to LC3-1 ratio at 50 nM by Western blot analysis
HeLa [8] = assay: Inhibition of autophagic flux in human HeLa cells assessed as p62 protein expression at 50 nM by Western blot analysis
HeLa [9] = assay: Inhibition of autophagic flux in human HeLa cells assessed as increase in LC3-2 accumulation at 50 nM by Western blot analysis

C/C=C1/CN(C)[C@H]2Cc3c([nH]c4ccccc34)[C@H](OC)C[C@H]1[C@]2(CO)C(=O)OC
IC50 (SMMC-7721): > 10 µM
IC50 (SW480): > 10 µM
IC50 (A549): > 10 µM
IC50 (MCF7): > 10 µM
EC50 (HeLa [1]): > 40 µM
IC50 (HL-60): > 10 µM

CC[C@H]1C[C@H]2C[C@@]3(C(=O)OC)c4[nH]c5cc(OC)ccc5c4CC[N@@](C2CC(C)=O)[C@@H]13 (stereo partly drawn)
EC50 (HeLa [1]): > 40 µM

CC[C@H]1C[C@@H]2CN3CCc4c([nH]c5cc(OC)c([C@@H]6C[C@H]7C(C(=O)OC)[C@H](Cc8c6[nH]c6ccccc86)N(C)C[C@H]7CC)cc45)[C@](C(=O)OC)(C2)[C@H]13 (stereo partly drawn)
EC50 (HeLa [1]): 16 µM
inhibition (HeLa [1]): Dose-dependent effect

COC(=O)C[C@@H]1[C@@H]2C[C@H]([C@H](C)O)[C@@H]3N1CCc1c([nH]c4cc(OC)ccc14)[C@]3(C(=O)OC)C2
IC50 (SMMC-7721): > 10 µM
IC50 (SW480): > 10 µM
IC50 (A549): > 10 µM
IC50 (MCF7): > 10 µM
EC50 (HeLa [1]): > 40 µM
IC50 (HL-60): > 10 µM

C/C=C1/CN2COC[C@@]3(C(=O)OC)[C@@H]1C[C@@H](c1c(OC)ccc4c5c([nH]c14)[C@]1(C(=O)OC)C[C@@H]4C[C@H](CC)[C@@H]1N(CC5)C4)c1[nH]c4ccccc4c1C[C@H]23
EC50 (HeLa [1]): > 40 µM

C/C=C1/CN2COC[C@]3(C(=O)OC)[C@@H]1C[C@@H](c1c(OC)ccc4c5c([nH]c14)[C@]1(C(=O)OC)C[C@H]4C[C@H](CC)[C@@H]1N(CC5)C4=O)c1[nH]c4ccccc4c1C[C@H]23
IC50 (SMMC-7721): > 10 µM
IC50 (SW480): > 10 µM
IC50 (A549): > 10 µM
IC50 (MCF7): > 10 µM
EC50 (HeLa [1]): > 40 µM
IC50 (HL-60): > 10 µM

CC[C@H]1C[C@H]2CN3CCc4c([nH]c5cc(OC)c([C@@H]6C[C@H]7[C@@]8(C(=O)OC)CO[C@H](N(C)[C@H]8Cc8c6[nH]c6ccccc86)[C@@]76O[C@H]6C)cc45)[C@](C(=O)OC)(C2)[C@H]13
inhibition (HeLa [2]): Active
IC50 (SMMC-7721): < 10 µM
inhibition (HeLa [3]): Active
IC50 (SW480): > 10 µM
inhibition (HeLa [4]): Active
IC50 (A549): < 10 µM
IC50 (MCF7): < 10 µM
inhibition (HeLa [5]): Active
EC50 (HeLa [1]): 20.2 µM
inhibition (HeLa [1]): Dose-dependent effect
IC50 (HL-60): < 10 µM

COC(=O)[C@@]12CC3C[C@H]([C@H](C)O)[C@@H]1N(C3)Cn1c2c(C=O)c2ccccc21
IC50 (SMMC-7721): > 10 µM
IC50 (SW480): > 10 µM
IC50 (A549): > 10 µM
IC50 (MCF7): > 10 µM
EC50 (HeLa [1]): > 40 µM
IC50 (HL-60): > 10 µM

CCN(CC)CCCC(C)Nc1ccnc2cc(Cl)ccc12 (stereo not drawn) [CHLOROQUINE]
EC50 (HeLa [1]): 19.6 µM

CC[C@H]1C[C@@H]2CN3CCc4c([nH]c5cc(OC)ccc45)[C@](C(=O)OC)(C2)[C@H]13 [ISOVOACANGINE]
EC50 (HeLa [1]): > 40 µM

CO/C1=C\C(C)=C\[C@@H](C)[C@@H](O)[C@@H](C)C/C(C)=C/C=C/[C@H](OC)[C@@H]([C@@H](C)[C@@H](O)[C@H](C)[C@@]2(O)C[C@@H](O)[C@H](C)[C@@H](C(C)C)O2)OC1=O
inhibition (HeLa [6]): Active
inhibition (HeLa [7]): Active
inhibition (HeLa [8]): Active
inhibition (HeLa [9]): Active

COC(=O)[C@@]12C[C@@H]3C[C@H]([C@H](C)O)C1[N@@](CCc1c2[nH]c2ccccc12)C3
EC50 (HeLa [1]): > 40 µM

C/C=C1/CN(C)[C@H]2Cc3c([nH]c4ccccc34)[C@H](c3cc4c(cc3OC)N=C3[C@]5(C(=O)OC)C[C@]6(C(=O)OC)C[C@H](CC)[C@@H]5N(CC[C@@]34O)C6)C[C@H]1[C@]2(CO)C(=O)OC
EC50 (HeLa [1]): 25.7 µM
inhibition (HeLa [1]): Dose-dependent effect

COC(=O)[C@@]12C[C@@H]3CC([C@H](C)O)[C@@H]1[N@@](CC[C@]1(O)C2=Nc2ccccc21)C3 (stereo partly drawn)
EC50 (HeLa [1]): > 40 µM

CC[C@H]1C[C@H]2C[C@@]3(C(=O)OC)c4[nH]c5ccccc5c4CC[N@@](C2CC(C)=O)[C@@H]13 (stereo partly drawn)
EC50 (HeLa [1]): > 40 µM

C/C=C1/CN(C)[C@H]2Cc3c([nH]c4ccccc34)[C@H](c3c(OC)ccc4c5c([nH]c34)[C@]3(C(=O)OC)C[C@H]4C[C@H](CC)[C@@H]3N(C4)C[C@H]5OC)C[C@H]1[C@]2(CO)C(=O)OC
IC50 (SMMC-7721): > 10 µM
IC50 (SW480): > 10 µM
IC50 (A549): > 10 µM
IC50 (MCF7): > 10 µM
EC50 (HeLa [1]): > 40 µM
IC50 (HL-60): > 10 µM

CC[C@H]1C[C@H]2CN3CC[C@@]4(O)C(=Nc5cc(OC)ccc54)[C@](C(=O)OC)(C2)[C@H]13
IC50 (SMMC-7721): > 10 µM
IC50 (SW480): 7.5 µM
IC50 (A549): > 10 µM
IC50 (MCF7): > 10 µM
EC50 (HeLa [1]): > 40 µM
IC50 (HL-60): > 10 µM

C/C=C1/CN2COC[C@]3(C(=O)OC)[C@@H]1C[C@@H](c1c(OC)ccc4c1N=C1[C@]5(C(=O)OC)C[C@@H]6C[C@H](CC)[C@@H]5N(CC[C@]14O)C6)c1[nH]c4ccccc4c1C[C@H]23
EC50 (HeLa [1]): > 40 µM

CC[C@H]1C[C@@H]2CN3CCc4c([nH]c5ccccc45)[C@](C(=O)OC)(C2)[C@H]13 [CORONARIDINE]
EC50 (HeLa [1]): > 40 µM

COC(=O)C[C@@H]1[C@@H]2C[C@H]([C@H](C)O)[C@@H]3N1CCc1c([nH]c4ccc(OC)cc14)[C@]3(C(=O)OC)C2
IC50 (SMMC-7721): > 10 µM
IC50 (SW480): > 10 µM
IC50 (A549): > 10 µM
IC50 (MCF7): > 10 µM
EC50 (HeLa [1]): > 40 µM
IC50 (HL-60): > 10 µM

C/C=C1/CN2COC[C@@]3(C(=O)OC)[C@@H]1C[C@H](c1cc4c5c([nH]c4cc1OC)[C@]1(C(=O)OC)C[C@@H]4C[C@H](CC)[C@@H]1N(CC5)C4)c1[nH]c4ccccc4c1C[C@H]23
IC50 (SMMC-7721): 4.7 µM
IC50 (SW480): 3.5 µM
IC50 (A549): 8.6 µM
IC50 (MCF7): 4 µM
EC50 (HeLa [1]): 29.8 µM
inhibition (HeLa [1]): Dose-dependent effect
IC50 (HL-60): 3.2 µM

COC(=O)[C@@]12C[C@@H]3CC([C@H](C)O)[C@@H]1[N@@](CC[C@]1(O)C2=Nc2ccc(OC)cc21)C3 (stereo partly drawn)
EC50 (HeLa [1]): > 40 µM

C/C=C1/CN(C)[C@H]2Cc3c([nH]c4ccccc34)[C@H](c3c(OC)ccc4c3N=C3[C@]5(C(=O)OC)C[C@@H]6C[C@H](CC)[C@@H]5N(CC[C@]34O)C6)C[C@H]1[C@]2(CO)C(=O)OC
EC50 (HeLa [1]): > 40 µM

C/C=C1/CN(C)[C@H]2Cc3c([nH]c4ccccc34)[C@H](c3c(OC)ccc4c3N[C@]3(OC)[C@]5(C(=O)OC)C[C@H]6C[C@H](CC)[C@@H]5N5CC[C@@]43O[C@H]65)C[C@H]1[C@]2(CO)C(=O)OC
IC50 (SMMC-7721): > 10 µM
IC50 (SW480): > 10 µM
IC50 (A549): > 10 µM
IC50 (MCF7): > 10 µM
EC50 (HeLa [1]): > 40 µM
IC50 (HL-60): > 10 µM

CC[C@H]1C[C@H]2C[N@]3CCc4c([nH]c5ccc(OC)cc45)[C@](C(=O)OC)(C2)[C@H]13
EC50 (HeLa [1]): > 40 µM

CC[C@H]1C[C@]2(C(=O)OC)CN3CC[C@@]4(O)C(=Nc5cc(OC)c([C@@H]6C[C@H]7[C@@]8(C(=O)OC)CO[C@H](N(C)[C@H]8Cc8c6[nH]c6ccccc86)[C@@]76O[C@H]6C)cc54)[C@](C(=O)OC)(C2)[C@H]13
inhibition (HeLa [2]): Active
inhibition (HeLa [3]): Active
inhibition (HeLa [4]): Active
inhibition (HeLa [5]): Active
EC50 (HeLa [1]): 12.9 µM
inhibition (HeLa [1]): Dose-dependent effect

COC(=O)[C@@]12C[C@@H]3C[C@@H]([C@H](C)O)C1[N@@](CCc1c2[nH]c2ccccc12)C3
EC50 (HeLa [1]): > 40 µM
